What was measured:
GBA3 = biological target: T1, GBA3 (Homo sapiens, UniProt Q9H227); assay: ABP labeling of β-D-glucosidases in HEK293T cell lysate, GBA3; type: biochemical; settings: 30 min, pH 6.0
T1 construct: expressed in transfected cells; host or cells: HEK293T (GBA/GBA2 KO background for the fluorogenic assay; endogenous-GBA background with GBA2 and GBA3 overexpressed for ABPP and intact-cell assays)
T1 sequence (Q9H227 1-469): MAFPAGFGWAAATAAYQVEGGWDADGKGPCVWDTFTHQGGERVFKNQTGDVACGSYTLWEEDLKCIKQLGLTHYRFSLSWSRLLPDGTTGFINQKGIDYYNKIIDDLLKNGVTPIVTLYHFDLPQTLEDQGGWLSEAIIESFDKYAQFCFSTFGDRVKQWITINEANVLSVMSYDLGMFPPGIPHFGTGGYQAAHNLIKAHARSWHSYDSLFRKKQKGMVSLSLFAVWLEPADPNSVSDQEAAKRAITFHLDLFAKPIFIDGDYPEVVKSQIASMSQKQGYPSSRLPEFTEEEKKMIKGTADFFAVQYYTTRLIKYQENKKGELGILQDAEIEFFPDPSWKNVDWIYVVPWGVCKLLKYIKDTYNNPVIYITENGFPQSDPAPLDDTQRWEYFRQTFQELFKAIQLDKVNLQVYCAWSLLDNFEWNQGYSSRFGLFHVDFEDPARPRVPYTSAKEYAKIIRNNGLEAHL
Procedure: (§1) We next investigated, by ABPP, the GBA/GBA2/GBA3 activity and selectivity of β‐D‐xylo‐cyclophellitol aziridine ABPs 6 and 8 in comparison to those of GBA‐specific ABP 9 [31] or ABP 10.
(§2) Figure 4 (A) ABP labeling of β‐D‐glucosidases. A lysate of HEK293T cells expressing human GBA, GBA2 and GBA3 was incubated with indicated ABPs (6, 9 or 10) for 30 min at pH 6.0. Fluorescently labeled proteins were visualized after SDS‐PAGE. (B) Labeling with ABP 6 of wild type or mutant GBA2 (E527G nucleophile mutation and D667G acid/base mutation) expressed in HEK293T cells.
(§3) ABP labeling procedure: Glycosidases were labeled with excess fluorescent ABPs at optimum conditions. […] After ABP incubation, proteins were denatured by boiling the samples with 5× Laemmli buffer (50 % (v/v) 1 M Tris‐HCl, pH 6.8, 50 % (v/v) 100 % glycerol, 10 % (w/v) DTT, 10 % (w/v) SDS, 0.01 % (w/v) bromophenol blue) for 5 min at 98 °C, and separated by electrophoresis on 10 % (w/v) SDS‐PAGE gels running continuously at 90 V. Wet slab‐gels were scanned on fluorescence using the Typhoon FLA 9500 (GE Healthcare) at λEX 473 nm and λEM≥510 nm for green fluorescent ABP 8; and at λEX 635 nm and λEM≥665 nm for ABP 6, 9 and 10. ABP‐emitted fluorescence was quantified using ImageQuant software (GE Healthcare, Chicago, IL, USA) and curve‐fitted using Prism 8.0 (GraphPad Software). […]

GBA = biological target: T2, GBA (Homo sapiens, UniProt P04062); assay: ABP labeling of β-D-glucosidases in HEK293T cell lysate, GBA; type: biochemical; settings: 30 min, pH 6.0
T2 construct: HEK293T cells that contain endogenous GBA; endogenous in cells; host or cells: HEK293T (ATCC CRL-3216) overexpressing GBA2 and GBA3
T2 sequence (P04062 40-536): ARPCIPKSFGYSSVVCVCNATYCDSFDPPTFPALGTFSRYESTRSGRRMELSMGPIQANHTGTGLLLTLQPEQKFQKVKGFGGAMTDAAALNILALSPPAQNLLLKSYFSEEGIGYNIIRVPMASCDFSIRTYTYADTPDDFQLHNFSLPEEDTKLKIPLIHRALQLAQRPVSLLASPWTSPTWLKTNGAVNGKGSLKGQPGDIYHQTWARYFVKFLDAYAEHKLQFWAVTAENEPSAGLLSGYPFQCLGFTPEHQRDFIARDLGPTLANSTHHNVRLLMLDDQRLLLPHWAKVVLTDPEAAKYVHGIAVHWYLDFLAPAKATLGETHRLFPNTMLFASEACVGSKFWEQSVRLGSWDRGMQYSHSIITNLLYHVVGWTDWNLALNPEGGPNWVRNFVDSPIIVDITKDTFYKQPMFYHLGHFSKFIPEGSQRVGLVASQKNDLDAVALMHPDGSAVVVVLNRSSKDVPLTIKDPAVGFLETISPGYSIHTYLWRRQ
Procedure: as §1, §2, §3

| Compound | labeling of GBA3 compared with ABP 10 (GBA3) | selectivity of ABP labeling towards GBA over GBA2 and GBA3 (GBA) |
| --- | --- | --- |
| CN1/C(=C/C=C/C=C/C2=[N+](CCCCCC(=O)NCc3cn(CCCCCCCCN4[C@H]5[C@H](O)[C@@H](O)[C@H](O)C[C@H]54)nn3)c3ccccc3C2(C)C)C(C)(C)c2ccccc21 (some centres unmarked) [ABP 6] | tenfold less efficiently | – |
| CN1/C(=C/C=C/C=C/C2=[N+](CCCCCC(=O)NCc3cn(C[C@@H]4[C@@H](O)[C@H](O)[C@@H](O)[C@@H]5O[C@H]45)nn3)c3ccccc3C2(C)C)C(C)(C)c2ccccc21 [ABP 9, reference compound] | – | most selective ABP towards GBA over GBA2 and GBA3 |
